The conditions of the data set: instrument: DT, single field, calibrated with ESI Low Concentration Tuning Mix (Agilent).

From the C3SDB collision cross section collection come the findings set out here.

Where “and” joins values, the source holds several entries; their conditions need not be identical. Identical values can stand only once. Counter-ions that a name gives are not always drawn.

On to `O=P(O)(O)OC1O[C@H](CO)[C@@H](O)[C@H](O)[C@H]1O` (some centres not stated) [GLUCOSE 1-PHOSPHATE], for which the “collision cross section (N2)” value came to 158.3 Å² ([M+Na]+) and 148.7 Å² ([M-H]-).

For `O=P(O)(O)OC[C@H]1OC(O)[C@H](O)[C@@H](O)[C@@H]1O` (some centres not stated) [GLUCOSE 6-PHOSPHATE], the “collision cross section (N2)” value is, setting by setting: ([M+Na-2H]-) 156.9 Å²; ([M+Na]+) 158.1 Å²; ([M-H]-) 146.5 Å² and 146.6 Å².

On to `N[C@@H](CCC(=O)N[C@@H](CS)C(=O)NCC(=O)O)C(=O)O` [GLUTATHIONE REDUCED], for which the “collision cross section (N2)” value is, setting by setting: ([M+H]+) 167.8 Å²; ([M+Na-2H]-) 164.8 Å²; ([M+Na]+) 167 Å²; ([M-H]-) 162.1 Å².

`O=P(O)(O)OCC(O)CO` (configuration not stated) [GLYCEROL 3-PHOSPHATE]: the “collision cross section (N2)” value was determined as 137.1 Å² ([M+Na]+) and 127.2 Å² ([M-H]-).

Consider `C[C@H](CCC(=O)NCC(=O)O)[C@H]1CC[C@H]2[C@@H]3[C@H](O)C[C@@H]4C[C@H](O)CC[C@]4(C)[C@H]3C[C@H](O)[C@]12C` [GLYCOCHOLATE], for which the “collision cross section (N2)” value ([M+H]+) is on record as 199.7 Å², the “collision cross section (N2)” value ([M+K]+) turned out to be 208 Å², the “collision cross section (N2)” value ([M+Na]+) worked out at 202.2 Å² and the “collision cross section (N2)” value ([M-H]-) is 202.2 Å².

For `O=C(O)CNC(=O)c1ccccc1` [HIPPURATE], the “collision cross section (N2)” value ([M+Na]+) amounted to 149.6 Å² and the “collision cross section (N2)” value ([M-H]-) is reported as 142 Å².

With `NC(CCO)C(=O)O` (configuration not stated) [HOMOSERINE], the “collision cross section (N2)” value is reported as 125.9 Å² ([M+H]+) and 120.2 Å² ([M-H]-).

For the compound `COc1cc(CC(=O)O)ccc1O` [HOMOVANILLATE], the “collision cross section (N2)” value ([M+Na]+) is 146.2 Å² and the “collision cross section (N2)” value ([M-H]-) stood at 136 Å².

For the compound `O=C(O)C(O)Cc1ccc(O)cc1` (configuration not stated) [HYDROXYPHENYLLACTATE], the “collision cross section (N2)” value is, setting by setting: ([M+Na]+) 144.2 Å²; ([M-H]-) 141.9 Å².

As to `O=C(O)Cc1c[nH]c2ccccc12` [INDOLE-3-ACETATE], the “collision cross section (N2)” value is, setting by setting: ([M+H]+) 135.9 Å²; ([M+Na]+) 143.5 Å².

On to `O=S(=O)(O)Oc1c[nH]c2ccccc12` [INDOXYL SULFATE], for which the “collision cross section (N2)” value ([M-H]-) amounted to 143.3 Å².

For `O=c1nc[nH]c2c1ncn2[C@@H]1O[C@H](COP(=O)(O)OP(=O)(O)O)[C@@H](O)[C@H]1O` [INOSINE 5'-DIPHOSPHATE], the “collision cross section (N2)” value by setting is: ([M+H]+) 186.6 Å²; ([M+Na-2H]-) 180 Å²; ([M+Na]+) 184 Å².

With `O=c1nc[nH]c2c1ncn2[C@@H]1O[C@H](COP(=O)(O)OP(=O)(O)OP(=O)(O)O)[C@@H](O)[C@H]1O` [INOSINE TRIPHOSPHATE], the “collision cross section (N2)” value is, setting by setting: ([M+H]+) 193.6 Å²; ([M+Na-2H]-) 182.8 Å²; ([M+Na]+) 197 Å²; ([M-H]-) 189.2 Å².

`O=C(O)c1cc(=O)c2ccccc2[nH]1` [KYNURENATE]: the “collision cross section (N2)” value by setting is: ([M+H]+) 136.7 Å²; ([M+Na]+) 151.1 Å²; ([M-H]-) 133.9 Å².

Turning to `C[N+](C)(C)C[C@H](O)CC(=O)[O-]` [L-CARNITINE], the “collision cross section (N2)” value ([M+H]+) is 132.9 Å².

As for `NCCC[C@H](N)C(=O)O` [L-ORNITHINE], for the setting “[M+H]+”, the “collision cross section (N2)” value worked out at 127.7 Å².

Take `OC[C@H]1O[C@@H](O[C@H]2[C@H](O)[C@@H](O)[C@H](O)O[C@@H]2CO)[C@H](O)[C@@H](O)[C@H]1O` [LACTOSE]: the “collision cross section (N2)” value ([M+K]+) turned out to be 178.6 Å², the “collision cross section (N2)” value ([M+Na]+) is listed as 175.3 Å² and the “collision cross section (N2)” value ([M-H]-) turned out to be 176.9 Å².

On to `C[C@H](CCC(=O)NCCS(=O)(=O)O)[C@H]1CC[C@H]2[C@@H]3CC[C@@H]4C[C@H](O)CC[C@]4(C)[C@H]3CC[C@]12C` [LITHOCHOLYLTAURINE], for which the “collision cross section (N2)” value reads like this: ([M+Na]+) 213.1 Å²; ([M-H]-) 206.6 Å².

As for `NCCCC[C@H](N)C(=O)O` [LYSINE], the “collision cross section (N2)” value runs as follows: ([M+H]+) 131.2 Å² and 131.4 Å²; ([M+Na]+) 135.5 Å²; ([M-H]-) 133.5 Å² and 133.7 Å².

`OC1OC[C@@H](O)[C@H](O)[C@@H]1O` (some centres not stated) [LYXOSE]: the “collision cross section (N2)” value ([M+Na]+) is reported as 136.8 Å².

In the case of `CSC[C@H]1O[C@@H](n2cnc3c(N)ncnc32)[C@H](O)[C@@H]1O` [METHYLTHIOADENOSINE], the “collision cross section (N2)” value is 162.5 Å² and 170.7 Å² ([M+H]+); 172.4 Å² ([M+Na]+); 166.9 Å² ([M-H]-).

With `CC(=O)NCCCNCCCCNCCCN` [N1-ACETYLSPERMINE], the “collision cross section (N2)” value by setting is: ([M+H]+) 158 Å²; ([M+Na]+) 162 Å².

As to `CC(=O)N[C@@H](CC(=O)O)C(=O)O` [N-ACETYLASPARTATE], the “collision cross section (N2)” value is, setting by setting: ([M+Na]+) 139.3 Å²; ([M-H]-) 131 Å².

With `CC(=O)N[C@@H](CS)C(=O)O` [N-ACETYLCYSTEINE], the “collision cross section (N2)” value ([M+Na]+) was 140.9 Å².

With `CC(=O)NCC(=O)O` [N-ACETYLGLYCINE], the “collision cross section (N2)” value ([M+Na]+) is 133 Å².

Take `CSCC[C@H](NC(C)=O)C(=O)O` [N-ACETYLMETHIONINE]: the “collision cross section (N2)” value was 150.1 Å² ([M+Na]+) and 142.6 Å² ([M-H]-).

Consider `CC(=O)NC(Cc1ccccc1)C(=O)O` (configuration not stated) [N-ACETYLPHENYLALANINE], for which the “collision cross section (N2)” value is, setting by setting: ([M+Na]+) 149.4 Å²; ([M-H]-) 146.9 Å².

As for `CSCC[C@H](NC=O)C(=O)O` [N-FORMYL-L-METHIONINE], the “collision cross section (N2)” value is on record as 145.3 Å² ([M+Na]+) and 136.1 Å² ([M-H]-).

In the case of `NC(=O)C1=CN([C@@H]2O[C@H](COP(=O)(O)OP(=O)(O)OC[C@H]3O[C@@H](n4cnc5c(N)ncnc54)[C@H](OP(=O)(O)O)[C@@H]3O)[C@@H](O)[C@H]2O)C=CC1` [NADPH], the “collision cross section (N2)” value was determined as 240.5 Å² ([M+Na-H]+), 232.2 Å² ([M+]+) and 246.7 Å² ([M-H]-).

As for `NC(=O)c1ccc[n+]([C@@H]2O[C@H](COP(=O)(O)OP(=O)(O)OC[C@H]3O[C@@H](n4cnc5c(N)ncnc54)[C@H](OP(=O)(O)O)[C@@H]3O)[C@@H](O)[C@H]2O)c1` [NADP], the “collision cross section (N2)” value is, setting by setting: ([M+H2O-H]-) 243.9 Å²; ([M+H]+) 232.6 Å²; ([M+Na-2H]-) 231.5 Å² and 231.8 Å²; ([M+Na]+) 240.9 Å²; ([M-H]-) 230.7 Å² and 230.9 Å².

Turning to `CCCCCCCC/C=C\CCCCCCCCCCCCCC(=O)[O-]` [NERVONATE], the “collision cross section (N2)” value is, setting by setting: ([M+Na]+) 204.4 Å²; ([M-H]-) 197.5 Å².

Turning to `NC(=O)c1ccc[n+]([C@@H]2O[C@H](COP(=O)([O-])O)[C@@H](O)[C@H]2O)c1` [NICOTINAMIDE MONONUCLEOTIDE], the “collision cross section (N2)” value ([M+H]+) is on record as 166 Å².

As for `Nc1ncnc2c1ncn2[C@@H]1O[C@H](COP(=O)(O)OP(=O)([O-])OC[C@H]2O[C@@H]([n+]3cccc(C(=O)O)c3)[C@H](O)[C@@H]2O)[C@@H](O)[C@H]1OP(=O)(O)O` [NICOTINIC ACID ADENINE DINUCLEOTIDE PHOSPHATE], the “collision cross section (N2)” value is, setting by setting: ([M+H]+) 230.4 Å²; ([M-H]-) 230.3 Å².

Take `NC[C@H](O)c1ccc(O)c(O)c1` [NORADRENALINE]: the “collision cross section (N2)” value reads like this: ([M-H2O+H]+) 137.2 Å²; ([M-H]-) 134.2 Å².

`CCCC[C@H](N)C(=O)O` [NORLEUCINE]: the “collision cross section (N2)” value by setting is: ([M+H]+) 136 Å²; ([M-H]-) 132 Å².

As to `NCCCNCCCN` [NORSPERMIDINE], the “collision cross section (N2)” value ([M+H]+) is 127.6 Å² and the “collision cross section (N2)” value ([M+Na]+) was 132.4 Å².

Turning to `CC(=O)OC[C@H](N)C(=O)O` [O-ACETYLSERINE], the “collision cross section (N2)” value ([M+H]+) is 130.5 Å².

In the case of `NCCOP(=O)(O)O` [O-PHOSPHOETHANOLAMINE], the “collision cross section (N2)” value ([M-H]-) came to 123.2 Å².

As for `N[C@@H](COP(=O)(O)O)C(=O)O` [O-PHOSPHOSERINE], the “collision cross section (N2)” value ([M+Na]+) is 140.8 Å².

`N[C@@H](CCOC(=O)CCC(=O)O)C(=O)O` [O-SUCCINYL-HOMOSERINE]: the “collision cross section (N2)” value by setting is: ([M+H]+) 145.9 Å²; ([M+Na-2H]-) 145.8 Å²; ([M+Na]+) 145.7 Å².

As to `O=C(O)CCC(=O)C(=O)O` [OXOGLUTARATE], under “[M-H]-”, the “collision cross section (N2)” value was 120.9 Å².

As for `NC[C@H](O)c1ccc(O)cc1` [P-OCTOPAMINE], for the setting “[M+Na]+”, the “collision cross section (N2)” value is listed as 147.3 Å².

Regarding `CCCCCCCCCCCCCCCC(=O)O` [PALMITATE], the “collision cross section (N2)” value ([M+Na]+) came to 173.2 Å².

`CC(C)(CO)[C@@H](O)C(=O)NCCC(=O)O` [PANTOTHENATE]: under “[M+H]+”, the “collision cross section (N2)” value was determined as 129.9 Å².

As to `CCCCCCCCCCC/C=C\CCCCC(=O)[O-]` [PETROSELINATE], the “collision cross section (N2)” value ([M-H]-) is 175.6 Å².

`N[C@@H](COP(=O)(O)O)C(=O)O` [PHOSPHOSERINE]: the “collision cross section (N2)” value is, setting by setting: ([M+Na-2H]-) 135.1 Å²; ([M-H]-) 127.5 Å².

For the compound `O=P(O)(O)OC1C(OP(=O)(O)O)C(OP(=O)(O)O)C(OP(=O)(O)O)C(OP(=O)(O)O)C1OP(=O)(O)O` (configuration not stated) [PHYTATE], the “collision cross section (N2)” value ([M+H]+) is listed as 215.8 Å², the “collision cross section (N2)” value ([M+Na-2H]-) is 201.3 Å² and the “collision cross section (N2)” value ([M-H]-) is reported as 195.4 Å².
